These are literature values, as cited in patent US20060148877A1, “Pharmaceutical formulations of celcoxib” (TransForm Pharmaceuticals, Inc., priority 2002, published 2006).

The conditions of this series: commercially available form (CELEBREX), neutral molecule.

As for `Cc1ccc(-c2cc(C(F)(F)F)nn2-c2ccc(S(N)(=O)=O)cc2)cc1` [celecoxib, 4-[5-(4-methylphenyl)-3-(trifluoromethyl)-1H-pyrazol-1-yl]benzenesulfonamide], the solubility in water result is recorded as “essentially insoluble in water”.
